From PubChem BioAssay AID624167 (Sanford-Burnham Center for Chemical Genomics, 2012)
Activity calls are given as the source filed them.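 The calls were made as follows: active = mean IC50 for reducing PEG3 promoter reporter signal at or below a set limit, with IC50 above the limit in both counter screens; inactive = the rest, including counter screen hits.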

Experiments:
PEG-3 [1] = target: PEG-3 (UniProt Q6IN02); experiment: inhibition of PEG-3 promoter-driven reporter – cell-based, HeLa, luciferase, CREF/GAPDH counter-screen panel, dose response (AID 624167); conditions: HeLa PEG-Prom luciferase reporter, overnight, CREF/GAPDH counter-screens, mean of runs
Chain of PEG-3 (UniProt Q6IN02) (Q6IN02 whole entry, looked up): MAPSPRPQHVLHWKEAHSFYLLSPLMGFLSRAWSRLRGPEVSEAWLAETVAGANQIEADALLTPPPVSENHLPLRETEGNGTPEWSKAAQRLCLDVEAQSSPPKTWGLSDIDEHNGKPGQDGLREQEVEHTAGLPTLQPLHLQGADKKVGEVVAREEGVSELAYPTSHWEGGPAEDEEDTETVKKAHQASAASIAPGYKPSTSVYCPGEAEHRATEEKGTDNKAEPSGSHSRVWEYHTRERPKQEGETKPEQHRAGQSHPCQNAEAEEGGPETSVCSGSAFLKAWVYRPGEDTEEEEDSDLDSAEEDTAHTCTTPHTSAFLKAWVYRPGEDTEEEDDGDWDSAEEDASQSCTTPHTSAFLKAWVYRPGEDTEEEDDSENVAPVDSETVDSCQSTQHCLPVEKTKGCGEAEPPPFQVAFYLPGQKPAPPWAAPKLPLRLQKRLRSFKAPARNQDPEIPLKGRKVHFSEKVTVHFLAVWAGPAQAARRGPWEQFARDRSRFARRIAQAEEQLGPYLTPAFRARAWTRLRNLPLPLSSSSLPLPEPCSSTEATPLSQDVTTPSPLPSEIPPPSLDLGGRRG

PEG-3 [2] = experiment: as above; conditions: HeLa PEG-Prom luciferase reporter, overnight, CREF/GAPDH counter-screens
[3] = run 1, dose range 1, individual replicate IC50 per panel
[4] = run 2, dose range 1, individual replicate IC50 per panel

| SMILES | IC50 (PEG-3 [1]) | IC50 (PEG-3 [2]; [3]) [µM] | IC50 (PEG-3 [2]; [4]) [µM] |
| --- | --- | --- | --- |
| CCn1cc(CN2CCC(C(=O)Nc3cccc(-c4cccc(Cl)c4)c3)CC2)c(C)n1 | 14.5 µM | 17.7 | 11.2 |
| CC(=O)c1c(NCCc2ccccc2)nc(=S)n(-c2ccccc2)c1C | 13.8 µM | 17.2 | 10.3 |
| CN(C)CCCN(C(=O)c1ccc(C(=O)c2ccccc2)cc1)c1nc2cc3c(cc2s1)OCO3 | 16 µM | 18.8 | 13.3 |
| CC(NS(=O)(=O)OCC(Cl)(Cl)Cl)c1ccc(C(C)(C)C)cc1 (stereo unspecified) | inactive | 38.1 | > 100 |
| CCc1ccc(OCCNc2cc(N3CCNC(C)C3)ccc2[N+](=O)[O-])cc1 (stereo unspecified) | 12.7 µM | 16.3 | 8.98 |
| COc1ccc(C[C@H]2CN3C(=NC[C@@H]3Cc3ccc(O)cc3)N2C[C@H](C)NC(=O)c2ccc(C)c(Br)c2)cc1 | inactive | 22.7 | 20.8 |
| COc1ccc(CNCCc2c(C)[nH]c3ccc(OC(F)(F)F)cc23)c(OC)c1 | 13.4 µM | 13.6 | 13.1 |
| O=Cc1cn(Cc2ccc([N+](=O)[O-])cc2)c2ccccc12 | > 100 µM (inactive) | > 100 | > 100 |
| CC(C)(C)n1nnnc1C(CCc1ccccc1)N1CCC(n2c(=O)[nH]c3ccccc32)CC1 (stereo unspecified) | inactive | 18.3 | 24.7 |
| CCC(C)Sc1ccc(-c2nc3ccccn3c2NCc2ccccc2)cc1OC (stereo unspecified) | inactive | 38.3 | 20.2 |
| O=C1c2ccccc2C(=O)C12OC2c1ccc(Cl)cc1Cl (stereo unspecified) | inactive | 28.4 | 14.6 |
| CN1Cc2c(N3CCOCC3)nc3sc(C(=O)c4ccc(Br)cc4)c(N)c3c2CC1(C)C | 15.2 µM | 18.8 | 11.6 |
| CC(=O)c1ccc(Nc2cc(C)nc3ccc(C)cc23)cc1 | 13.3 µM | 21.8 | 4.69 |
| COc1ccc(C(c2nnnn2-c2c(C)cccc2C)N2CCC(n3c(=O)[nH]c4ccccc43)CC2)cc1 (stereo unspecified) | 11.3 µM | 11.4 | 11.3 |
| Cc1ccc(S(=O)(=O)N2CCCCC2)cc1C(=O)N(C)CC(=O)Nc1ccc(Cl)c(C(F)(F)F)c1 | inactive | 45.1 | 42.7 |
| CC(=O)c1cccc(NC(=O)c2cccc3c(-c4cccnc4)coc23)c1 | inactive | 25.6 | > 100 |
| C[C@@H]1O[C@@H](O[C@@H]2C=C3CCC4C(CC[C@]5(C)[C@@H](c6ccc(=O)oc6)CC[C@]45O)[C@@]3(C)CC2)[C@H](O)[C@H](O)[C@H]1O (stereo partly specified) | 0.45 µM | 0.709 | < 0.2 |
| O=C(Cc1csc(Nc2nc(=S)[nH]c3ccccc23)n1)NCc1ccccc1Cl | > 100 µM (inactive) | > 100 | > 100 |
| Cc1nc(N2CCN(c3ccccc3O)CC2)c2c(-c3ccccc3)csc2n1 | inactive | 29 | 24.6 |
| OCCNCc1cc(Br)ccc1OCc1ccc(Cl)cc1Cl | 17.4 µM | 16.9 | 17.9 |
| NC(=O)c1nsc(C(=O)N(c2ccccc2F)C(C(=O)NCc2ccccc2)c2ccc(O)cc2)c1N (stereo unspecified) | inactive | 39.4 | > 100 |
| COc1ccc(C(O)(CC(C)C)C(CN2CCOCC2)c2ccccc2)cc1 (stereo unspecified) | inactive | > 100 | 6.84 |
| CC1=CC(C)[C@H](/C=N/n2c(=O)[nH]c3c([nH]c4ccc(Br)cc43)c2=O)C(C)C1 (stereo partly specified) | inactive | > 100 | 5.42 |
| C[C@@H](NCCCn1cnc2c(OCc3ccccc3)ncnc21)c1cccc2ccccc12 | 16.5 µM | 17.7 | 15.2 |

| SMILES | IC50 (PEG-3 [1]) | IC50 (PEG-3 [2]; [3]) [µM] | IC50 (PEG-3 [2]; [4]) [µM] |
| --- | --- | --- | --- |
| COc1cccc(Nc2nc(C(N)C3CCCCC3)cs2)n1 (stereo unspecified) | inactive | 21.8 | 47.6 |
| COc1ccc2c(c1)[nH]c1c(=O)n(/N=C/C3C(C)C=C(C)CC3C)c(=O)[nH]c12 (stereo unspecified) | > 100 µM (inactive) | > 100 | > 100 |
| O=c1cc2oc3cc(O)c(O)cc3c(-c3ccccc3[N+](=O)[O-])c-2cc1O | 19 µM | 19 | 19.1 |
| CCOc1cc(/C=N/Nc2nc(-c3cccc(S(=O)(=O)N4CCCC4)c3)cs2)ccc1O | inactive | 22.3 | 60.1 |
| COc1ccc(-c2cc(C(=O)N(C)Cc3cccc(OC)c3OC)c3ccccc3n2)cc1OC | inactive | 12.7 | 71.2 |
| O=C1/C(=C/c2ccccc2Cl)SC(=S)N1CCCC(=O)N(CCO)c1ccccc1 | 17.8 µM | 18.9 | 16.7 |
| Cc1cccc2c1-c1sc(C(=O)NCCCN3CCCC(C)C3)cc1CO2 (stereo unspecified) | 15.6 µM | 17.5 | 13.7 |
| COc1ccc(C)cc1Nc1n[n+](-c2ccccc2)c(-c2ccc(N(C)C)cc2)s1 | inactive | 36.3 | 65.2 |
| CCOc1cccc2sc(N(CCCN(C)C)C(=O)c3ccc(S(=O)(=O)N(C)Cc4ccccc4)cc3)nc12 | 16.6 µM | 18.6 | 14.7 |
| COc1ccc(-c2nc(NC(=O)c3n[nH]c(=O)c4ccccc34)sc2C)cc1 | inactive | 0.904 | > 100 |
| Cc1ccc(NS(=O)(=O)c2cc3c4c(cccc4c2)C(=O)NC3=O)cc1C | inactive | 5.99 | > 100 |
| COc1cc(-c2cc(C(=O)N(C)Cc3ccccc3)c3ccccc3n2)cc(OC)c1OC | inactive | 69.3 | 72.2 |
| CN(C)CCCN1c2ccccc2Sc2ccc3ccccc3c21 | 16.9 µM | 17.7 | 16 |
| Cc1ccc2cccc(OCC(=O)Nc3cccc(S(=O)(=O)N4CCCC4)c3)c2n1 | inactive | 22.3 | 33.9 |
| O=c1c2ccccc2oc2cc(C#CC3(O)CCCCC3)ccc12 | inactive | 27.8 | > 100 |
| N#Cc1cc2c(nc1SC1CC(=O)N(c3ccccc3)C1=O)CCC2 (stereo unspecified) | inactive | > 100 | 1.02 |
| COc1ccc(CN2CCN(C(=O)c3cc(-c4cccnc4)nc4ccc(Cl)cc34)CC2)c(OC)c1OC | inactive | 52.4 | 16.4 |
| COc1ccc(-c2cc(C(=O)N(C)Cc3ccccc3F)c3ccccc3n2)cc1OC | inactive | 23.9 | 24.1 |
| COc1ccc(CC(=O)N(Cc2ccccc2)c2ccccc2)cc1S(=O)(=O)N1CCOCC1 | inactive | 50.5 | > 100 |
| COc1ccc(S(=O)(=O)N2c3ccccc3OCC2c2ccccc2)cc1 (stereo unspecified) | > 100 µM (inactive) | > 100 | > 100 |
| CC1(C)Oc2cc3oc(-c4cc(O)cc(O)c4)cc3cc2CC1O (stereo unspecified) | inactive | 37.1 | 13.7 |
| COc1cccc2sc(N(CCCN(C)C)C(=O)C(c3ccccc3)c3ccccc3)nc12 | 18.2 µM | 18.2 | 18.2 |
| Cc1cnc(NC(=O)C2CC(=O)N(c3cccc(Cl)c3)C2)s1 (stereo unspecified) | 13.6 µM | 23.5 | 3.78 |
